{"source": "ChEMBL document CHEMBL3745679", "about": "“Identification and characterization of natural microbial products that alter the free d-aspartate content of mammalian cells” (2016)", "key": {"[1]": {"tested_on": "PC-12", "experiment": "Inhibition of D-aspartate biosynthesis in rat PC12 cells assessed as reduction of intracellular D-aspartate content at 10 uM measured at 1 hr by O-phthalaldehyde/N-acetyl-L-cysteine derivatization technique-based HPLC analysis relative to vehicle-treated control", "assay_type": "functional, cell-based"}, "[2]": {"tested_on": "PC-12", "experiment": "Inhibition of D-aspartate biosynthesis in rat PC12 cells assessed as reduction of total D-aspartate content at 10 uM measured at 1 to 3 hrs by O-phthalaldehyde/N-acetyl-L-cysteine derivatization technique-based HPLC analysis relative to vehicle-treated control", "assay_type": "functional, cell-based"}, "[3]": {"tested_on": "HEK293", "experiment": "Increase in intracellular D-aspartate content in HEK293 cells at 5 ug after 24 hrs by O-phthalaldehyde/N-acetyl-L-cysteine derivatization technique-based HPLC analysis relative to total aspartate (reference value: 7.38 +/- 1.9%)", "assay_type": "functional, Homo sapiens"}, "[4]": {"tested_on": "PC-12", "experiment": "Effect on L-aspartate biosynthesis in rat PC12 cells assessed as effect on total L-aspartate level up to 10 uM after 24 hrs by O-phthalaldehyde/N-acetyl-L-cysteine derivatization technique-based HPLC analysis", "assay_type": "functional, cell-based"}, "[5]": {"tested_on": "PC-12", "experiment": "Inhibition of D-aspartate biosynthesis in rat PC12 cells assessed as reduction of intracellular D-aspartate content at 10 uM measured at 3 to 16 hrs by O-phthalaldehyde/N-acetyl-L-cysteine derivatization technique-based HPLC analysis relative to vehicle-treated control", "assay_type": "functional, cell-based"}, "[6]": {"tested_on": "PC-12", "experiment": "Inhibition of D-aspartate biosynthesis in rat PC12 cells assessed as reduction of total D-aspartate content at 10 uM measured at 6 to 16 hrs by O-phthalaldehyde/N-acetyl-L-cysteine derivatization technique-based HPLC analysis relative to vehicle-treated control", "assay_type": "functional, cell-based"}, "[7]": {"tested_on": "PC-12", "experiment": "Inhibition of D-aspartate biosynthesis in rat PC12 cells assessed as reduction of total D-aspartate level after 24 hrs by O-phthalaldehyde/N-acetyl-L-cysteine derivatization technique-based HPLC analysis", "assay_type": "functional, cell-based"}, "[8]": {"tested_on": "PC-12", "experiment": "Inhibition of D-aspartate biosynthesis in rat PC12 cells assessed as reduction of intracellular D-aspartate level up to 10 uM after 24 hrs by O-phthalaldehyde/N-acetyl-L-cysteine derivatization technique-based HPLC analysis", "assay_type": "functional, cell-based"}, "[9]": {"tested_on": "PC-12", "experiment": "Inhibition of D-aspartate biosynthesis in rat PC12 cells assessed as reduction of D-aspartate level in cell culture medium up to 10 uM after 24 hrs by O-phthalaldehyde/N-acetyl-L-cysteine derivatization technique-based HPLC analysis", "assay_type": "functional"}, "[10]": {"tested_on": "PC-12", "experiment": "Effect on L-aspartate biosynthesis in rat PC12 cells assessed as effect on intracellular L-aspartate level up to 10 uM after 24 hrs by O-phthalaldehyde/N-acetyl-L-cysteine derivatization technique-based HPLC analysis", "assay_type": "functional, cell-based"}, "[11]": {"tested_on": "PC-12", "experiment": "Effect on L-aspartate biosynthesis in rat PC12 cells assessed as effect on L-aspartate level in cell culture medium up to 10 uM after 24 hrs by O-phthalaldehyde/N-acetyl-L-cysteine derivatization technique-based HPLC analysis", "assay_type": "functional"}, "[12]": {"tested_on": "PC-12", "experiment": "Inhibition of D-aspartate biosynthesis in rat PC12 cells assessed as reduction of total D-aspartate content at 0.2 uM measured at 16 hrs by O-phthalaldehyde/N-acetyl-L-cysteine derivatization technique-based HPLC analysis relative to vehicle-treated control", "assay_type": "functional, cell-based"}, "[13]": {"tested_on": "PC-12", "experiment": "Inhibition of D-aspartate biosynthesis in rat PC12 cells assessed as reduction of total D-aspartate content at 0.2 uM measured at 1 to 6 hrs by O-phthalaldehyde/N-acetyl-L-cysteine derivatization technique-based HPLC analysis relative to vehicle-treated control", "assay_type": "functional, cell-based"}, "[14]": {"tested_on": "PC-12", "experiment": "Inhibition of D-aspartate biosynthesis in rat PC12 cells assessed as reduction of intracellular D-aspartate level after 24 hrs by O-phthalaldehyde/N-acetyl-L-cysteine derivatization technique-based HPLC analysis", "assay_type": "functional, cell-based"}, "[15]": {"tested_on": "PC-12", "experiment": "Effect on L-aspartate biosynthesis in rat PC12 cells assessed as effect on total L-aspartate level up to 0.2 uM after 24 hrs by O-phthalaldehyde/N-acetyl-L-cysteine derivatization technique-based HPLC analysis", "assay_type": "functional, cell-based"}, "[16]": {"tested_on": "PC-12", "experiment": "Inhibition of D-aspartate biosynthesis in rat PC12 cells assessed as effect on intracellular D-aspartate content at 0.2 uM incubated up to 16 hrs by O-phthalaldehyde/N-acetyl-L-cysteine derivatization technique-based HPLC analysis relative to vehicle-treated control", "assay_type": "functional, cell-based"}, "[17]": {"tested_on": "PC-12", "experiment": "Inhibition of D-aspartate biosynthesis in rat PC12 cells assessed as reduction of D-aspartate level in cell culture medium after 24 hrs by O-phthalaldehyde/N-acetyl-L-cysteine derivatization technique-based HPLC analysis", "assay_type": "functional"}, "[18]": {"tested_on": "PC-12", "experiment": "Effect on L-aspartate biosynthesis in rat PC12 cells assessed as effect on intracellular L-aspartate level up to 0.2 uM after 24 hrs by O-phthalaldehyde/N-acetyl-L-cysteine derivatization technique-based HPLC analysis", "assay_type": "functional, cell-based"}, "[19]": {"tested_on": "PC-12", "experiment": "Effect on L-aspartate biosynthesis in rat PC12 cells assessed as effect on L-aspartate level in cell culture medium up to 0.2 uM after 24 hrs by O-phthalaldehyde/N-acetyl-L-cysteine derivatization technique-based HPLC analysis", "assay_type": "functional"}, "[20]": {"tested_on": "PC-12", "experiment": "Inhibition of D-aspartate biosynthesis in rat PC12 cells assessed as reduction of D-aspartate content in cell culture medium at 0.2 uM measured at 6 to 12 hrs by O-phthalaldehyde/N-acetyl-L-cysteine derivatization technique-based HPLC analysis relative to vehicle-treated control", "assay_type": "functional"}, "[21]": {"tested_on": "PC-12", "experiment": "Inhibition of D-aspartate biosynthesis in rat PC12 cells assessed as reduction of intracellular D-aspartate content up to 0.5 uM after 24 hrs by O-phthalaldehyde/N-acetyl-L-cysteine derivatization technique-based HPLC analysis", "assay_type": "functional, cell-based"}, "[22]": {"tested_on": "PC-12", "experiment": "Effect on L-aspartate biosynthesis in rat PC12 cells assessed as effect on intracellular L-aspartate content up to 0.5 uM after 24 hrs by O-phthalaldehyde/N-acetyl-L-cysteine derivatization technique-based HPLC analysis", "assay_type": "functional, cell-based"}, "[23]": {"tested_on": "PC-12", "experiment": "Inhibition of D-aspartate biosynthesis in rat PC12 cells assessed as reduction of total D-aspartate level up to 0.5 uM after 24 hrs by O-phthalaldehyde/N-acetyl-L-cysteine derivatization technique-based HPLC analysis", "assay_type": "functional, cell-based"}, "[24]": {"tested_on": "PC-12", "experiment": "Effect on L-aspartate biosynthesis in rat PC12 cells assessed as effect on total L-aspartate content up to 0.5 uM after 24 hrs by O-phthalaldehyde/N-acetyl-L-cysteine derivatization technique-based HPLC analysis", "assay_type": "functional, cell-based"}}, "note": "The source made the active and inactive calls. The calls are words filed in the database; no cut-off is given here.", "data": [{"smiles": "COC1=C2C[C@@H](C)C[C@H](OC)[C@H](O)[C@@H](C)/C=C(\\C)[C@H](OC(N)=O)[C@@H](OC)/C=C\\C=C(/C)C(=O)NC(=CC1=O)C2=O", "note": "[GELDANAMYCIN]", "values": [{"measurement": "inhibition", "setting": "[1]", "result": "inactive"}, {"measurement": "inhibition", "setting": "[2]", "result": "inactive"}, {"measurement": "Activity", "setting": "[3]", "result": 15.8, "unit": "%"}, {"measurement": "Activity", "setting": "[4]", "result": "inactive"}, {"measurement": "inhibition", "setting": "[5]", "result": "Active"}, {"measurement": "inhibition", "setting": "[6]", "result": "Active"}, {"measurement": "inhibition", "setting": "[7]", "result": "Dose-dependent effect"}, {"measurement": "inhibition", "setting": "[8]", "result": "Active"}, {"measurement": "inhibition", "setting": "[9]", "result": "Active"}, {"measurement": "Activity", "setting": "[10]", "result": "inactive"}, {"measurement": "Activity", "setting": "[11]", "result": "inactive"}]}, {"smiles": "CO[C@@H](C(=O)[C@H](O)[C@@H](C)O)[C@H]1Cc2cc3cc(O[C@H]4C[C@@H](O[C@@H]5C[C@H](O)[C@@H](O)[C@H](C)O5)[C@H](O)[C@@H](C)O4)c(C)c(O)c3c(O)c2C(=O)[C@@H]1O[C@H]1C[C@@H](O[C@@H]2C[C@H](O[C@H]3C[C@](C)(O)[C@H](O)[C@@H](C)O3)[C@@H](O)[C@H](C)O2)[C@H](O)[C@@H](C)O1", "values": [{"measurement": "inhibition", "setting": "[12]", "result": "Active"}, {"measurement": "inhibition", "setting": "[13]", "result": "inactive"}, {"measurement": "Activity", "setting": "[3]", "result": 9.33, "unit": "%"}, {"measurement": "inhibition", "setting": "[14]", "result": "Dose-dependent effect"}, {"measurement": "Activity", "setting": "[15]", "result": "inactive"}, {"measurement": "inhibition", "setting": "[16]", "result": "inactive"}, {"measurement": "inhibition", "setting": "[17]", "result": "Dose-dependent effect"}, {"measurement": "Activity", "setting": "[18]", "result": "inactive"}, {"measurement": "Activity", "setting": "[19]", "result": "inactive"}, {"measurement": "inhibition", "setting": "[20]", "result": "Active"}]}, {"smiles": "CC(C)[C@H]1CC[C@@]2(CO2)[C@H]2C(=O)OCC(C(=O)O)=C[C@H]12", "values": [{"measurement": "Activity", "setting": "[3]", "result": 0.291, "unit": "%"}, {"measurement": "inhibition", "setting": "[21]", "result": "inactive"}, {"measurement": "Activity", "setting": "[22]", "result": "inactive"}, {"measurement": "inhibition", "setting": "[23]", "result": "inactive"}, {"measurement": "Activity", "setting": "[24]", "result": "inactive"}]}]}
